Values of other authors in patent US20210137108A1, “REDUCED INHALATION HAZARD OF QUATERNARY AMMONIUM COMPOUNDS-PH DRIVEN PHYSIOLOGICAL RESPONSE” (priority 2016, published 2021).
Like-named read-outs stand apart in the source and are kept apart here.

Key:
rats = system: rats; set-up: key: L is lethal dose; S indicates survival
[1] = rats
[2] = system: lung biomarkers, Clara cells, blood-air barrier; conditions: inhalation exposure at 35 mg per cubic meter

Compound | lethal dose / survival (rats; i.a., dose 15-20 mg/kg) | lethal dose / survival (rats; i.v., dose 15-20 mg/kg) | lethal dose / survival (rats; p.o., dose 250 mg/kg) | lethal dose / survival (rats; p.o., dose 1250 mg/kg) | pKa | lethal dose / survival (rats; i.a., dose 100-150 mg/kg) | lethal dose / survival (rats; i.v., dose 100-150 mg/kg) | concentrations in the lungs and kidneys compared to levels observed in the liver and tissue [1] | Clara cells and CC16 protein concentration [2] | changes in lung biomarker levels [2] | inflammatory response and blood-air barrier [2] | influx of proteins from blood vessels and alveolar space [2]
N=C(NCCCCCCNC(=N)NC(=N)Nc1ccc(Cl)cc1)NC(=N)Nc1ccc(Cl)cc1.O=C(O)[C@H](O)[C@@H](O)[C@H](O)[C@H](O)CO.O=C(O)[C@H](O)[C@@H](O)[C@H](O)[C@H](O)CO [Chlorhexidine gluconate] | L | L | S | S and (poor) |  |  |  |  |  |  |  | 
NS(=O)(=O)O [Sulfamic Acid] |  |  |  |  | 1 |  |  |  |  |  |  | 
Alkyldiaminoethylglycine | S | S | S | L |  | L | L |  |  |  |  | 
Benzalkonium Chloride | L | L | S | L |  |  |  | several times higher | Damage to Clara cells and a reduced concentration in CC16 protein | significant changes | strong inflammatory response and damage to the blood-air barrier | massive influx of proteins
Soidum dodecylbenzensulfonate | S | S | S | L |  | L | L |  |  |  |  | 
